Tests used:
[1] = test system: p53; assay: Western blot for p53 and phospho-p53 in cultured cardiomyocytes; assay type: cell-based, rat; settings: NRVMs
Procedure: GAPDH was used as loading control. Phospho-p53 antibodies were directed against serine 15 of p53 protein.
Cardiomyocytes were infected with 10MOI of a replication deficient adenoviral vector containing the CMV promoter and either human BRCA1 or a null vector (human Adenovirus Type5 dE1/E3, Vector Biolabs, USA). Following 48 hours incubation, cardiomyocytes were treated with 21 μM of doxorubicin or 50 μM of H2O2. The inhibitor of p53, pifithrin-α (10 μm, Sigma Aldrich, USA) was added 2 hrs prior to the addition of doxorubicin or hydrogen peroxide. After 24 hours, cardiomyocytes were either trypsinized and collected for flow cytometry or harvested for protein and RNA extraction.

[2] = test system: HUVECs; assay: HUVEC apoptosis assays (Annexin V-FITC/PI flow cytometry, cleaved caspase-3, DNA fragmentation); assay type: cell-based, human; settings: ad-null infected HUVECs, 2 μM doxorubicin 24 hours
Procedure: In FIG. 23A ad-null or ad-BRCA1 infected HUVECs were treated with TNFα (20 ng/ml) for 24 hours. Cells were harvested for Annexin V-FITC and Propidium Iodide staining followed by flow cytometry. Total apoptotic cells are shown as mean±SD (n=3 in triplicate, **p<0.01). In FIG. 23B, HUVECs were treated with either siBRCA1 (10 nM) or scrambled siRNA (10 nM) for 24 hours. BRCA1-silenced and control HUVECs were treated with TNFα (20 ng/ml), stained with Annexin V-FITC and Propidium Iodide, and analyzed by flow cytometry. The percentage of total apoptotic cells are presented as mean±SD (n=3 in triplicate, **p<0.01). […] Data was calculated as the percentage of total apoptotic cells and presented as mean±SD (n=3 in triplicate, **p<0.01).
FIG. 31 is a bar graph showing protection of HUVECs against doxorubicin-induced apoptosis by BRCA1 overexpression. […] Data was calculated as the percentage of total apoptotic cells and presented as mean±SD (n=3 in triplicate, *p<0.01 vs. Ad-null group, †p<0.01 vs. Ad-null+2 μM Dox group). […]
Human umbilical vein endothelial cells (HUVECs) were purchased from Cambrex and cultured in MCDB-131 complete medium (Cambrex Corporation). […] These concentrations were determined from pilot optimization studies. […]
Apoptotic and necrotic cell death were assessed in ad-BRCA1 and ad-null infected HUVECs by flow cytometry coupled with the BD Annexin V-FITC Apoptosis Detection Kit. […]

[3] = test system: BRCA1 and p53 interaction; assay: Co-immunoprecipitation of BRCA1 and p53 in cardiomyocytes; assay type: cell-based, rat; settings: agent alone
Procedure: BRCA1 physically interacts with p53 in order to regulate p53 activity in a context dependent manner. Proteins were extracted after treatment and equal amounts (100 μg) of lysates were resolved by SDS PAGE.
Experiments were performed to access the interaction of BRCA1 with p53 in cardiomyocytes. […] Additionally, doxorubicin treatment, in the presence of overexpressing BRCA1 strengthened this association (lane 4, FIG. 6).
For analysis of physical interaction between BRCA1 and p53, cardiomyocytes were maintained and treated in 6-cm culture-dishes. After adenoviral and/or stress treatments, cells were scraped and suspended in 100 μL of RIPA buffer. The total cell lysate was obtained after homogenization and centrifugation at 14,000 g for 30 minutes at 4° C. Protein concentration was determined by the Bradford assay. Aliquots of each fraction (100 μg protein for total cell lysate) were incubated with either 0.5 μg of anti-p53 mouse monoclonal antibody (Cell Signaling Technology, USA) or with 0.5 μg of anti-BRCA1 (Santa Cruz Biotechnology, USA) for 1 hour at 4° C. Addition of protein A-Sepharose (Santa Cruz Biotechnology) and incubation for 16 hours at 4° C. was followed by centrifugation and repetitive washing of the Sepharose beads. […]

[4] = test system: Wild-type mice; assay: Doxorubicin-induced cardiac dysfunction in mice, echocardiography; settings: doxorubicin 10 mg/kg i.p.; echocardiography day 3 and day 7
Procedure: Left ventricular function was assessed by echocardiography measuring percent systolic ejection fraction 3 days (FIG. 3A) or 7 days (FIG. 3B) after administration of vehicle, Ad-null vector (40 μl of 10^10 PFU, i.v.), Ad-GFP (40 μl of 10^10 PFU, i.v.), doxorubicin (10 mg/kg, i.p.) or doxorubicin (10 mg/kg, i.p.) with Ad-hBRCA1 (40 μl of 10^10 PFU, i.v.). Left ventricular function was also assessed by measuring fractional shortening values 3 days (FIG. 3C) after administration of vehicle, Ad-null vector (40 μl of 10^10 PFU, i.v.), Ad-GFP (40 μl of 10^10 PFU, i.v.), doxorubicin (10 mg/kg, i.p.) or doxorubicin (10 mg/kg, i.p.) with Ad-hBRCA1 (40 μl of 10^10 PFU, i.v.). *P<0.01 vs corresponding PBS group. †P<0.01 vs corresponding doxorubicin group. # p<0.01 vs. PBS+ad-GFP, ## p<0.001 vs. Dox+ad-BRCA1. n=3 for PBS and GFP groups; n=7 for doxorubicin and doxorubicin-BRCA1 groups. […]
Double-blinded echocardiography was performed on the doxorubicin- and adenoviral vectors-treated mice 3 days and 7 days post-treatment. […] End-diastolic posterior LV wall thickness, LV end-diastolic (LVEDD) and end-systolic LV dimension (LVESD) were measured. During diastole, LV dimension and wall thickness were measured from the maximum chamber cavity; during systole, they were measured during maximum anterior motion of the posterior wall. […]

[5] = test system: rat neonatal ventricular cardiomyocytes (NRVMs); assay: Cardiomyocyte apoptosis, AnnexinV-FITC/PI flow cytometry and cleaved caspase-3 western blot; assay type: cell-based
Procedure: In FIG. 5A apoptosis in control, BRCA1-overexpressing, doxorubicin-treated and doxorubicin-treated-BRCA1-overexpressing neonatal rat ventricular cardiomyocytes (NRVCM) was assessed by Annexin V-FITC and propidium iodide staining coupled with flow cytometry. Quadrants S1, S2, S3 and S4 respectively represent necrotic, late apoptotic, viable live and early apoptotic NRVCM. FIG. 5B is a representative western blot of cleaved caspase-3 and α-actin proteins in NRVCM infected with either 10 MOI Ad-hBRCA1 or Ad-null vector for 48 hours before being exposed to 2 μM doxorubicin for 24 hours. Data are expressed as mean±SD. n=3. *P<0.05 vs untreated control group. †P<0.01 vs doxorubicin group.
The effect of pifithrin-α on doxorubicin-induced cardiomyocyte apoptosis, with or without overexpression of BRCA1 was examined. […]
BRCA-1 induced gain of function and protection against genotoxic and oxidative stress-induced apoptosis was also examined in vitro. […] Cardiomyocytes were incubated with the virus (human BRCA1 or GFP) for 48 hours after which expression of human BRCA1 or GFP were determined. Expression of BRCA1 was analyzed by real-time PCR and western blotting (see FIGS. 4A and 4B) and expression of GFP was analyzed by live cell video microscopy. […] Based on this observation, 10 MOI was determined to be the best of the three tested concentrations of the adenoviral construct. […]

COc1cccc2c1C(=O)c1c(O)c3c(c(O)c1C2=O)C[C@@](O)(C(=O)CO)C[C@@H]3O[C@H]1C[C@H](N)[C@H](O)[C@H](C)O1 [doxorubicin]
p53 level ([1]; agent on its own): upregulated p53
serine-15 phosphorylation of p53 ([1]; doxorubicin alone): activated
apoptosis [2]: prevalent
BRCA1 and p53 association [3]: decline
cardiac function (percent systolic ejection fraction, fractional shortening) [4]: impairment in cardiac function

Cc1ccc(C(=O)Cn2c3c(sc2=N)CCCC3)cc1 [PFT-α, pifithrin-α]
number of apoptotic cardiomyocytes ([5]; BRCA1-overexpressing cardiomyocytes treated with doxorubicin and PFT-α): no further reduction
number of apoptotic cells ([5]; cardiomyocytes treated with doxorubicin, PFT-α 10 μm added 2 hrs prior, vs doxorubicin only): significant reductions
